These results are taken from ChEMBL document CHEMBL1177888, “Mn(II), Co(II) and Zn(II) complexes with heterocyclic substituted thiosemicarbazones: synthesis, characterization, X-ray crystal structures and antitumor comparison” (Eur J Med Chem, 2010).

For orientation: IC50 means the midpoint of a concentration-inhibition curve. A lower IC50 goes with inhibition by little substance.

The subject of the experiment is K562. Briefly: Cytotoxicity against human K562 cells after 48 hrs by MTT assay. Format: functional, cell-based. The note with it: K562, 48 h. Background: Tetrazolium dyes change colour on reduction, which living cells bring about.
As to `S=C(N/N=C(\c1ccccc1)c1ccccn1)Nc1ccccc1`, the IC50 stood at 1.43 µM.
For the molecule `C/C(=N\NC(N)=S)c1ccccn1`, the IC50 came out at 29.7 µM.
Next, `CNC(=S)N/N=C(\C)c1ccccn1`: 4.58 µM.
